Source: publication PMC12297887, “Enhanced Anticancer Potential of Pd(II)-Thiosemicarbazone Complexes: Selectivity, Mechanisms, and 3D Models” (Pharmaceutics, 2025)

How the values were obtained:
[1] = system: A2780cis (ovarian cisplatin resistant cancer); test: Cell viability (MTT), A2780cis; type: cell-based; conditions: for IC50: 48 h of incubation, MTT; for resistance factor (RF): IC50(A2780cis)/IC50(A2780); for Selectivity index (SI) A2780cis: IC50 MRC5 / IC50 A2780cis
Description: (§1) The cell lines used in the tests were A2780 (ovarian cancer), A2780cis (ovarian cisplatin resistant cancer), A549 (lung cancer), MRC5 (non-tumoral lung […]), MDA-MB-231 (triple-negative breast cancer), MCF-7 (breast cancer), SK-BR-3 (breast cancer), MCF-10A (non-tumoral breast cancer), and A375 (skin cancer—melanoma).
(§2) The MCF-10A cell line was grown in DMEM/F-12 culture medium, supplemented with 5% horse serum, human epidermal growth factor (EGF) (20 ng/mL), hydrocortisone (0.05 mg/mL), insulin (0.01 mg/mL), penicillin (1%), streptomycin (1%), and L-glutamine (2 mM). The A2780, A2780cis, and MCF-7 cell lines were cultured in RPMI-1640 medium, and the other lines in DMEM medium; both culture media were supplemented with 10% (v/v) FBS (fetal bovine serum), antibiotics, and antimycotics. Cultivation was carried out in culture flasks stored in a humid incubator at 37 °C, with an atmosphere of 5% CO2.
(§3) The plates were kept for 24 h in a humidified incubator (37 °C, 5% CO2), after which 0.75 μL of a DMSO solution (0.5% v/v) containing the compounds of interest was added to each well. The plates were then incubated for a further 48 h. The ratio of viability of cells was obtained using the MTT method. Through its reduction via the mitochondrial process, purple formazan is formed, which is proportional to cell viability. After incubating the microplates, 50 μL of a solution of MTT (1 mg∙mL^−1) in PBS was added to each well and the cells were incubated again in the oven for 4 h. Finally, the solution was removed from each well and 100 μL of isopropyl alcohol with 10% DMSO was added to solubilize the Formazan crystals. Absorbance measurements (540 nm) were then taken in each well using a BioTek EPOCH spectrophotometer (BioTek, Winooski, WT, USA). The data obtained was analyzed using Excel 360 and GraphPadPrism 8.0.2.

[2] = system: A375 (skin cancer, melanoma); test: Cell viability (MTT), A375; type: cell-based; conditions: 48 h of incubation
Description: as §1, §2, §3

[3] = system: MRC5 (non-tumoral lung); test: Cell viability (MTT), MRC5; type: cell-based; conditions: 48 h of incubation, non-tumor lung fibroblast
Description: as §1, §2, §3

[4] = system: A2780 (ovarian cancer); test: Cell viability (MTT), A2780; type: cell-based; conditions: for IC50: 48 h of incubation, MTT; for Selectivity index (SI) A2780: IC50 MRC5 / IC50 A2780
Description: as §1, §2, §3

[5] = system: MCF-7 (breast cancer); test: Cell viability (MTT), MCF-7; type: cell-based, human; conditions: for IC50: 48 h of incubation, MTT; for Selectivity index (SI) MCF-7: IC50 MRC5 / IC50 MCF-7
Description: as §1, §2, §3

[6] = system: MDA-MB-231 (triple-negative breast cancer); test: Cell viability (MTT), MDA-MB-231; type: cell-based, human; conditions: for IC50: 48 h of incubation, MTT; for Selectivity index (SI) MDA-MB-231: IC50 MRC5 / IC50 MDA-MB-231
Description: as §1, §2, §3

[7] = system: A549 (lung cancer); test: Cell viability (MTT), A549; type: cell-based; conditions: for IC50: 48 h of incubation, MTT; for Selectivity index (SI) A549: IC50 MRC5 / IC50 A549
Description: as §1, §2, §3

[8] = system: MCF-10A (non-tumoral breast); test: Cell viability (MTT), MCF-10A; type: cell-based, human; conditions: 48 h of incubation, non-tumorigenic breast line, read-out: IC50 MFC-10A
Description: as §1, §2, §3

[9] = system: SK-BR-3 (breast cancer); test: Cell viability (MTT), SK-BR-3; type: cell-based, human; conditions: for IC50: 48 h of incubation, MTT; for Selectivity index (SI) SK-BR-3: IC50 MRC5 / IC50 SK-BR-3
Description: as §1, §2, §3

[10] = system: A2780cis cells; test: Cell viability (LIVE/DEAD kit); type: cell-based; conditions: beginning at ½ × IC50, 48 h
Description: 1.0 × 10^4 A2780cis cells were added to each well in a 96-well plate. After 24 h, the cells were treated with different concentrations of the compound and incubated again for 48 h. Then 100 µL of the LIVE/DEAD® solution prepared as described by the manufacturer was added. The images were acquired using a fluorescence microscope (CELENA® S logos biosystems) with a 4× objective, carried out in triplicate. Live and dead cells were counted using ImageJ 1.53 software and the IC50 value was calculated using GraphPad Prism 8.0.2.

[11] = system: A2780cis cells; test: Apoptosis assay (PE-Annexin V/7AAD, flow cytometry); type: cell-based; conditions: ½ × IC50, 24 h; control 86.4%
Description: Apoptosis in A2780cis cells induced by the complexes was analyzed by flow cytometry; a PE-Annexin-V Apoptosis Detection kit (BD Biosciences) was employed. The cells (1 × 10^5 cells/well) were seeded in a 24-well plate. After incubation for 24 h, the cells were exposed to increasing concentrations of complex PdB1 for 24 h. After treatment, the cells were collected, centrifuged at 2000 rpm and 4 °C for 5 min, washed with ice-cold PBS, and resuspended in 150 µL of binding buffer. PE-Annexin V (2.5 µL) and 7ADD (2.5 µL) were added, which was followed by incubation in the dark at room temperature for 20 min. Then, the cells were centrifuged at 2000 rpm and 4 °C for 5 min, resuspended in 400 µL of binding buffer, and analyzed on an Accuri C6 (BD Biosciences) flow cytometer; 10,000 events were recorded. Fluorescence was quantified in triplicate with the Cell Quest software (BD Biosciences). Untreated cells were the negative control.

[12] = system: A2780cis cells; test: Clonogenic assay; type: cell-based; conditions: concentrations in relation to the IC50 of each complex, five days of treatment
Description: For this test, 600 cells of the A2780cis strain were added to each well of a six-well microplate. After incubating for 24 h in a 5% CO2 atmosphere, different concentrations of the compounds were added to the wells and incubated again for five days. After this period, the culture medium was changed and the plates were incubated for a further five days. Finally, the culture medium was removed and washed with PBS. Subsequently, a solution of methanol and acetic acid (3:1 v/v) was added for five minutes, and then the cells were stained with methyl violet solution. The plates were washed with distilled water. After drying, they were photographed using the iBright™ FL1500 (ThermoFisher, Waltham, MA, USA) and analyzed using ImageJ 1.53 software.

[13] = system: A2780cis spheroids; test: Three-dimensional (spheroid) assay; type: cell-based; conditions: for cell death within spheroids (DAPI/PI staining): 48 h; for spheroid morphology (brightfield): 48 h of treatment
Description: The 3D culture assay was performed with the A2780cis cell line using the Greiner Bio-One 96-well magnetic bioprinting kit. In total, 150 µL of magnetic nanoparticles were added to the cells grown in a 25 cm^2 bottle and incubated for 24 h. Then, 3750 cells/well were added to repellent 96-well plates, taken to the magnetic drive, and incubated for 4 days for the formation of […]. Once the spheroids had been obtained, they were treated with the compound PdB1 at different concentrations. Finally, images of the spheroids were recorded at 0 and 48 h, and images with fluorescence markers (DAPI and PI) were also obtained for the 48 h period using a logos biosystems CELENA® S fluorescence microscope.

[14] = system: A2780cis cells; test: Cell morphology assay (DAPI / Green Plasma fluorescence); type: cell-based; conditions: starting at ½ × IC50, 48 h
Description: For morphological analysis by fluorescence with Green Plasma and DAPI, 1 × 10^4 cells/well of A2780cis were added to 96-well plates and incubated for 24 h. After this, the cells were treated with different concentrations of the compound and incubated for 48 h. Then the medium was removed and the cells were fixed with methanol for 5 min, and 50 μL of CellMasK Green Plasma membrane was added. After 5 min, 50 µL of DAPI was added and incubated at room temperature for a further 10 min. Images were taken using a fluorescence microscope (CELENA® S Logos Biosystems, Anyang-si, Republic of Korea) with the appropriate filters.

[15] = Stability in DMSO by 31P{1H} NMR; type: physicochemical; conditions: d6-DMSO, after 48 h, no change in chemical shift
Description: The ^31P{^1H} NMR experiment was also carried out and the chemical shift values of the different complexes synthesized were similar to each other. There was a shift in the free PPh3 signal from −6.81 ppm to 30 ppm (Figure S12), indicating a reduction in the electronic density at the P of the triphenylphosphine due to coordination with Pd(II). Also, the PdB3 complex was tested for stability in DMSO.

SMILES | IC50 [1] [µM] | resistance factor (RF) [1] | Selectivity index (SI) A2780cis [1] | IC50 [2] [µM] | IC50 [3] [µM] | IC50 [4] [µM] | Selectivity index (SI) A2780 [4] | IC50 [5] [µM] | Selectivity index (SI) MCF-7 [5] | IC50 [6] [µM] | Selectivity index (SI) MDA-MB-231 [6] | IC50 [7] [µM] | Selectivity index (SI) A549 [7] | IC50 [8] [µM] | IC50 [9] [µM] | Selectivity index (SI) SK-BR-3 [9] | further results
N.N.[Cl][Pt][Cl] [Cisplatin, reference compound] | 25.1 ± 0.9 | 1.76 | 0.9 | 12.2 ± 0.62 | 21.6 ± 0.8 | 14.24 ± 0.05 | 1.5 | 8.64 ± 0.8 | 2.5 | 33.14 ± 0.3 | 0.7 | 13 ± 0.4 | 1.7 | 23.9 ± 0.7 | 5.86 ± 0.2 | 3.7 | 
CC(/C=C/c1ccccc1)=[N+]1NC(N)=[S+][Pd-]1([Cl])[PH](c1ccccc1)(c1ccccc1)c1ccccc1.[Cl-] [PdB1, [PdCl(L-B1)(PPh3)]Cl] | 0.2 ± 0.01 | 1.66 | 8.5 | 1.34 ± 0.08 | 1.7 ± 0.2 | 0.12 ± 0.01 | 14.2 | 3.79 ± 0.4 | 0.4 | 1.45 ± 0.1 | 1.2 | 44.8 ± 2 |  | 1.58 ± 0.07 | 1.42 ± 0.07 | 1.2 | LIVE/DEAD viability [10]: marked increase in red-fluorescing (non-viable) cells; Q2-LL (viable cells, Q3 in the text) [11]: 37.1%; colony formation [12]: significantly reduced colony formation; cell death within spheroids (DAPI/PI staining) ([13]; 12.5 µM): significant level of cell death; cell death within spheroids (DAPI/PI staining) ([13]; 25 µM): complete disintegration; spheroid morphology (brightfield) ([13]; 25 µM): marked reduction in compaction and cohesion; spheroid morphology (brightfield) ([13]; lower concentrations): continued spheroid growth; nuclear morphology (DAPI staining) [14]: chromatin condensation and nuclear fragmentation
CNC(NN=C(C)C=Cc1ccccc1)=[S][Pd]([Cl])[P](c1ccccc1)(c1ccccc1)c1ccccc1.[Cl-] [PdB2] | 0.21 ± 0.01 | 1.62 | 32.6 |  | 6.85 ± 0.3 | 0.13 ± 0.01 | 52.7 | 1.47 ± 0.2 | 4.7 | 0.92 ± 0.08 | 7.4 | 30.4 ± 0.4 | 0.2 |  | 1.48 ± 0.06 | 4.6 | 
CCNC1=[S+][Pd-]([Cl])([PH](c2ccccc2)(c2ccccc2)c2ccccc2)[N+](=C(C)/C=C/c2ccccc2)N1.[Cl-] [PdB3, [PdCl(L-B3)(PPh3)]Cl] | 0.26 ± 0.01 | 1.13 | 35.7 |  | 9.28 ± 0.3 | 0.23 ± 0.01 | 40.3 | 0.91 ± 0.008 | 10.2 | 1.04 ± 0.06 | 8.9 | 13 ± 1 | 0.7 |  | < 2 |  | stability in DMSO [15]: remained stable
NC1=[S+][Pd-]([Cl])([PH](c2ccccc2)(c2ccccc2)c2ccccc2)[N+](=C(/C=C/c2ccccc2)c2ccccc2)N1.[Cl-] [PdC1, [PdCl(L-C1)(PPh3)]Cl] | 0.62 ± 0.01 | 1.55 | 75.4 | > 50 | 46.8 ± 2 | 0.4 ± 0.01 | 116.9 | 17.7 ± 1 | 2.6 | 5.97 ± 0.1 | 7.8 | > 50 |  | 2.64 ± 0.06 | 2.25 ± 0.3 | 20.8 | colony formation [12]: reduced colony formation
CNC1=[S+][Pd-]([Cl])([PH](c2ccccc2)(c2ccccc2)c2ccccc2)[N+](=C(/C=C/c2ccccc2)c2ccccc2)N1.[Cl-] [PdC2, [PdCl(L-C2)(PPh3)]Cl] | 1.66 ± 0.01 | 0.42 |  |  | > 50 | 3.93 ± 0.2 |  | > 50 |  | 9.66 ± 0.4 |  | > 50 |  |  | > 50 |  | 
CCNC1=[S+][Pd-]([Cl])([PH](c2ccccc2)(c2ccccc2)c2ccccc2)[N+](=C(/C=C/c2ccccc2)c2ccccc2)N1.[Cl-] [PdC3, [PdCl(L-C3)(PPh3)]Cl] | 11.1 ± 0.6 | 0.48 |  |  | > 50 | 22.8 ± 1 |  | > 50 |  | > 50 |  | > 50 |  |  | > 50 |  | 
CC#N.CC#N.[Cl][Pd][Cl] [[PdCl2(MeCN)2], reference compound] | > 50 |  |  |  | > 50 |  |  |  |  | > 50 |  | > 50 |  |  |  |  | 
